Values of other authors in US20230320989A1, “SUSTAINED-RELEASE PHARMACEUTICAL FORMULATION OF FUSED TRICYCLIC ?-AMINO ACID DERIVATIVE AND PREPARATION METHOD THEREFOR” (SICHUAN HAISCO PHARMACEUTICAL CO., LTD., priority 2020, published 2023).

Conditions: patients with diabetic peripheral neuropathy

SMILES: NCC1(CC(=O)O)CCCCC1 [gabapentin]
- proportion of patients whose pain is relieved to a great extent: about 60%
